# Experimental data from PubChem BioAssay (NCI).
#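 Step 1: Grow cells in 96-well plates. Step 2: Expose to compound for 48 hours at 5 concentrations. Step 3: Interpolate endpoints linearly; if unreached, use highest concentration. Abbreviation: GI50, concentration required for 50% inhibition of growth. TGI: concentration producing complete growth inhibition.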
# Assays:
# Assay in all cases: growth of human tumour cells (NCI), 48 h
# COLO 205 colon = system: COLO 205 colon
# EKVX NSCLC = system: EKVX NSCLC
# HL-60(TB) leukemia = system: HL-60(TB) leukemia
# M14 melanoma = system: M14 melanoma
# NCI-H23 lung = system: NCI-H23 lung
# OVCAR-3 ovarian = system: OVCAR-3 ovarian
# OVCAR-8 ovarian = system: OVCAR-8 ovarian
# RPMI-8226 leukemia = system: RPMI-8226 leukemia
# SK-MEL-2 melanoma = system: SK-MEL-2 melanoma
# SK-OV-3 ovarian = system: SK-OV-3 ovarian
Compound,TGI (COLO 205 colon),TGI (EKVX NSCLC),TGI (HL-60(TB) leukemia),TGI (M14 melanoma),TGI (NCI-H23 lung),TGI (OVCAR-3 ovarian),TGI (OVCAR-8 ovarian),TGI (RPMI-8226 leukemia),TGI (SK-MEL-2 melanoma),TGI (SK-OV-3 ovarian),GI50 (COLO 205 colon),GI50 (EKVX NSCLC),GI50 (HL-60(TB) leukemia),GI50 (M14 melanoma),GI50 (NCI-H23 lung),GI50 (OVCAR-3 ovarian),GI50 (OVCAR-8 ovarian),GI50 (RPMI-8226 leukemia),GI50 (SK-MEL-2 melanoma),GI50 (SK-OV-3 ovarian)
COc1ccc2nc(-c3cccs3)cc(C(O)CN3CCSCC3)c2c1 (centres undefined),53.7 µM,97.1 µM,5.8 µM,40.6 µM,55.4 µM,> 100 µM,57.8 µM,43 µM,36 µM,> 100 µM,–,–,–,–,–,–,–,–,–,–
NNC(=O)/C(=C/c1ccc(Cl)cc1Cl)NC(=O)c1ccccc1,> 100 µM,> 100 µM,> 100 µM,> 100 µM,> 100 µM,> 100 µM,> 100 µM,> 100 µM,> 100 µM,> 100 µM,–,–,–,–,–,–,–,–,–,–
Nc1ccccc1C#C/C=C\C#Cc1cccs1,78.3 µM,35.1 µM,12.3 µM,30.9 µM,41.2 µM,24.8 µM,> 83.4 µM,> 35.7 µM,43.3 µM,> 52.3 µM,18.2 µM,12.7 µM,0.696 µM,10.5 µM,14.3 µM,4.85 µM,25 µM,1.25 µM,16.2 µM,26.5 µM
O=C1c2cccnc2C(=O)c2nc3cc(N4CCN(C5CC5)CC4)ccc3nc21,2.34 µM,4.02 µM,7.29 µM,1.18 µM,0.85 µM,3.67 µM,11.2 µM,8.63 µM,4.22 µM,2.89 µM,0.558 µM,1.68 µM,2.37 µM,0.301 µM,0.229 µM,1.24 µM,1.68 µM,2.4 µM,1.61 µM,0.648 µM
C/C(=N\NS(=O)(=O)c1ccccc1)c1ccc(Cl)c(Cl)c1,85.3 µM,> 100 µM,> 100 µM,> 100 µM,> 100 µM,> 100 µM,> 100 µM,> 100 µM,> 100 µM,> 100 µM,–,–,–,–,–,–,–,–,–,–
O=C(N/C(=C\c1ccc2c(c1)OCO2)c1nc2ccccc2[nH]1)c1ccccc1,> 60.3 µM,> 100 µM,37.4 µM,> 90.9 µM,53.4 µM,81.9 µM,> 100 µM,83.9 µM,55.9 µM,> 100 µM,–,–,–,–,–,–,–,–,–,–
COc1cccc(-n2ncc3c(N/N=C/c4ccc(C(=O)NCCN(C)C)cc4)ncnc32)c1,3.2 µM,8.57 µM,10.5 µM,5.55 µM,8.29 µM,6.71 µM,9.27 µM,12.9 µM,> 13.9 µM,4.68 µM,0.605 µM,4.31 µM,5.58 µM,1.8 µM,3.89 µM,3.31 µM,4.19 µM,6.33 µM,> 9.86 µM,1.53 µM
COC(=O)C(=O)C1(CCC(C)=O)c2ccccc2-c2c(C)ccc(C)c21 (centres undefined),> 100 µM,> 100 µM,32.1 µM,> 100 µM,> 100 µM,> 100 µM,> 100 µM,78.6 µM,> 100 µM,> 100 µM,–,–,–,–,–,–,–,–,–,–
O=C(O)/C=C\C(=O)N1C/C(=C\c2ccccc2Cl)C(=O)/C(=C/c2ccccc2Cl)C1,4.33 µM,18.3 µM,11.8 µM,10.6 µM,6.41 µM,5.51 µM,17 µM,10.3 µM,8.33 µM,15.2 µM,2.27 µM,5.24 µM,3.37 µM,3.1 µM,2.5 µM,2.4 µM,3.88 µM,1.35 µM,3.08 µM,4.74 µM
COc1ccc(-c2nn3c(-c4cc(F)c(Cl)cc4Cl)nnc3s2)cc1,36.8 µM,> 100 µM,43.9 µM,95.9 µM,> 100 µM,66.7 µM,62.1 µM,52.7 µM,60.1 µM,> 100 µM,16.5 µM,34.1 µM,15.6 µM,25.6 µM,29.9 µM,20.4 µM,22 µM,19.6 µM,25.4 µM,21.4 µM
O=c1cc(-c2ccccc2)[nH]c2ccccc12,–,> 100 µM,> 100 µM,> 100 µM,> 100 µM,–,> 100 µM,> 63 µM,> 100 µM,> 92.1 µM,0.45 µM,8.95 µM,0.52 µM,0.941 µM,1.16 µM,0.342 µM,4.18 µM,1.18 µM,> 100 µM,1.48 µM
CSc1ccc(C2OC(=O)c3ccccc32)c2ccccc12 (centres undefined),> 100 µM,> 100 µM,> 100 µM,> 100 µM,–,–,> 100 µM,> 100 µM,> 100 µM,> 100 µM,–,–,–,–,–,–,–,–,–,–
Oc1cccc2ccc(N/N=C/c3cc(CN4CCCCC4)c(O)c4ncccc34)nc12,1.36 µM,14.7 µM,1.29 µM,–,1.45 µM,1.74 µM,2.06 µM,9.29 µM,0.0814 µM,0.653 µM,0.0651 µM,0.299 µM,0.0345 µM,–,0.0485 µM,0.0858 µM,0.0508 µM,0.0371 µM,0.0288 µM,0.0435 µM
